Measurements: US11352358B2, “FXR agonist” (XUANZHU BIOPHARMACEUTICAL CO., LTD., priority 2017, dated 2022)

Experiments:
[1] = system: CYP7A1 mRNA in HepG2 cells; assay: Relative expression of CYP7A1 mRNA in HepG2 cells, IC50 (Experimental Example 3); assay type: cell-based; details: Homo sapiens, 24 hrs
Procedure: (§1) compounds of the present invention (for their chemical names and preparation methods, see the preparation example for each compound).
(§2) HepG2 cell: human liver cancer cell;
CYP7A1: cholesterol 7-alpha hydroxylase;
(§3) Control: compound 1-1B with a structure shown as follows, prepared according to a prior art method (for detailed information, see patent application WO2012087519A1).
(§4) Cells were digested with pancreatin and collected, and the concentration of the cells was determined; according to the counting result, the cells were resuspended to a density of 7.5×10^5 cells/mL; 2 mL of the cell suspension was inoculated in each well of a 6-well cell culture plate; and the culture plate was placed in an incubator and cultured under the conditions of 37° C. and 5% CO2 for 24 hrs.
(§5) The compounds were diluted to 3000, 1000, 200, 8, 1.6, 0.32, 0.0128, 0.00256 and 0.000512 μM with DMSO. Compound solutions of different concentrations obtained in the previous step were further diluted by 1,000 times with media to obtain working solutions, and a medium containing 0.1% of DMSO was adopted as a control group. The cell culture plate was taken out from the incubator, the medium was removed, and the working solutions and the control medium were added. The culture plate was placed back into the incubator and cultured under the conditions of 37° C. and 5% CO2 for 24 hrs. […]

SHP mRNA in HepG2 cells = assay: Relative expression of SHP mRNA in HepG2 cells, EC50 (Experimental Example 3); assay type: cell-based; details: Homo sapiens, 24 hrs
Procedure: as §1, §2
SHP: small heterodimer partner;
as §3, §4, §5

SHP mRNA in AML12 cells = assay: Relative expression of SHP mRNA in AML12 cells, EC50 (Experimental Example 4); assay type: cell-based; details: Mus musculus, 24 hrs
Procedure: as §1
AML12 cells: mouse liver cells.
as §3
as §4, with “of 7.5×10^4” for “of 7.5×10^5”, “cells/mL; 1” for “cells/mL; 2”, “a 12-well” for “a 6-well”
The compound were diluted to 1000, 200, 8, 1.6, 0.32, 0.128, 0.0256 and 0.00512 μM with DMSO. Compound solutions of different concentrations obtained in the previous step were further diluted by 1000 times with media to obtain working solutions, and a medium containing 0.1% of DMSO was adopted as a control group. The cell culture plate was taken out from the incubator, the medium was removed, and the working solutions and the control medium were added. The culture plate was placed back into the incubator and cultured under the conditions of 37° C. and 5% CO2 for 24 hrs.
after treatment for 24 hrs, the cell culture plate was taken out from the incubator, and the medium was removed from the plate; the cells were rinsed three times with pre-cooled (4° C.) PBS (phosphate buffer solution); and 200 μL of pancreatin (preheated to 37° C.) was added to each well, and the plate was then gently shaken such that the pancreatin could evenly cover the plate bottom. The culture plate was then placed back into the incubator and incubated until the cells were separated from the plate bottom. 1 mL of medium was added to terminate digestion. […]

BSEP mRNA in HepG2 cells = assay: Relative expression of BSEP mRNA in HepG2 cells, EC50 (Experimental Example 3); assay type: cell-based; details: Homo sapiens, 24 hrs
Procedure: as §1, §2
BSEP: bile salt export pump;
as §3, §4, §5

[2] = Liver microsome metabolism stability, rat liver microsome; assay type: in vitro ADME, SD rat; details: 0.5 mg protein/mL, test sample 1 μM, β-NADPH
Procedure: (§6) Test samples: the homemade compounds 1, 2, 4 and 5 of the present invention (for their chemical names and preparation methods, see the preparation example for each compound).
(§7) a mixed liver microsomes of SD rat and human both purchased from XenoTech, with batch Nos.: 1410271 (SD rat) and 1410013 (human) respectively, wherein the microsomal protein concentrations both were 20 mg mL^−1;
(§8) experimental promoter β-NADPH purchased from Roche (batch No.: 524F0231); and a phosphate buffer solution (pH 7.4) made in the lab.
(§9) An appropriate amount of the test sample powder was weighed accurately, and dissolved in an appropriate amount of dimethyl sulfoxide (DMSO) to a concentration of 1 mM; and the solution was then diluted by 20 times with methanol to yield a 50 μM working solution.
(§10) (1) According to the proportions in table 3 “Composition of the incubation system for liver microsome metabolism stability experiment” above, for each compound, 6 mL of PBS (100 mM), 0.6 mL of MgCl2 solution (20 mM) and 3.66 mL of H2O were made into a mixed solution 1 for the incubation system (not containing the microsomes, the test sample and β-NADPH).
(§11) (2) Liver microsomes (20 mg protein/mL) were taken from a refrigerator (−80° C.), and were placed on a thermostatic water bath oscillator (37° C.) and pre-incubated for 3 mins.
(§12) (3) For each compound, 1.88 mL of the mixed solution 1 for the incubation system was added with 55 μL of microsomes to obtain a mixed solution 2 for the incubation system (not containing the test sample and β-NADPH).
(§13) (4) Sample group (containing the microsomes and D-NADPH): 616 μL of mixed solution 2 for the incubation system was added with 14 μL of the test sample working solution (with a concentration of 50 μM), and with 70 μL of R-NADPH working solution (10 mM). The resulted solution was well mixed, and the resulted solution was then duplicated. The time points of sampling were at 0 min, 5th min, 10th min, 20th min, 30th min and 60th min.
(§14) (5) Control group (containing the microsomes, and water instead of D-NADPH): 264 μL of mixed solution 2 for the incubation system was added with 6 μL of the test sample working solution (50 μM), and with 30 μL of water. The resulted solution was well mixed, and the resulted solution was then duplicated. The time points of sampling were at 0 min and 60th min.
(§15) (6) 50 μL of sample was taken from an incubating sample tube at each predetermined time point, added to a terminating sample tube (containing 300 μL of cold terminator), and vortexed; and the reaction was terminated.
(§16) (7) after 10 mins of vortexing, the solution was centrifuged for 5 mins (12,000 rpm).
(§17) (8) 100 μL of supernatant was taken and added with 100 μL of water, and the mixture solution was thoroughly vortexed; and the solution was then analyzed by LC-MS/MS.
(§18) Percentages of residual contents were calculated according to the following formula.

[3] = Liver microsome metabolism stability, human liver microsome; assay type: in vitro ADME; details: 0.5 mg protein/mL, test sample 1 μM, β-NADPH
Procedure: as §6, §7, §8, §9, §10, §11, §12, §13, §14, §15, §16, §17, §18

Question: Which results are given for `O=C(O)c1cc(F)c2nc(N3C[C@@H]4C[C@H]3C[C@H]4OCc3c(-c4ccccc4OC(F)(F)F)noc3C3CC3)sc2c1` [Compound 8, 2-((1S, 4S, 5R)-5-((5-cyclopropyl-3-(2-(trifluoromethoxy)phenyl)isoxazol-4-yl)methoxy)-2-azabicyclo[2.2.1]heptan-2-yl)-4-fluorobenzo[d]thiazole-6-formic acid]?
Answer: IC50 [1]: 0.02 nM; EC50 (SHP mRNA in HepG2 cells): 0.09 nM; EC50 (SHP mRNA in AML12 cells): 0.89 nM; EC50 (BSEP mRNA in HepG2 cells): 0.35 nM; Residual content (%) after 60 minutes of incubation [2]: 73%; Residual content (%) after 60 minutes of incubation [3]: 96%
